Patent US20200255492A1, “LEPTIN PEPTIDES AND THEIR USE FOR TREATING NEUROLOGICAL DISORDERS” (UNIVERSITY OF DUNDEE, priority 2017, published 2020)

Tests used:
[1] = system: phosphorylated tau (p-tau); assay: ELISA of phosphorylated tau relative to α-tubulin; assay type: cell-based, human; settings: 10 nM; n=5
Procedure: The human neuroblastoma cell line, SH-SY5Y (ECACC, UK) was maintained in Dulbecco's Modified Eagle Medium supplemented with glucose ([…]) and 10% (v/v) cosmic calf serum (Fisher Scientific, UK) at 37° C. in a humidified atmosphere of 5% CO2, 95% air and allowed to reach 70-80% confluence before seeding. Cells (passage 10-18) were plated at 10 000 cells per well in 96 well tissue culture plates (Nunc, VWR, UK) and at a density of 2×10^5 cells in 35 mm dishes for protein extraction. To induce differentiation, cells were cultured in DMEM supplemented with glucose ([…]), 1% (v/v) cosmic calf serum and 10 μM retinoic acid for 5 days. Thereafter they were incubated in DMEM supplemented with glucose ([…]), serum replacement 2 (2%; Sigma, UK) and 18 μM 5-fluorodeoxyuridine to inhibit proliferation of undifferentiated cells. The 50% of the medium was changed every 2-3 days and pharmacological treatment was carried out 7 days after switching to this medium. Reagents used were (from Sigma UK unless stated) 0.1-10 nM human leptin and leptin (116-130); 0.1-10 nM leptin (22-56; Bachem; Switzerland); 10 nM leptin (116-121) leptin (117-122), leptin (124-129) or leptin (125-130; all Severn Biotech, UK); 5 μM copper chloride; […], 5 μM WP1066 or 50 nM wortmannin. All treatments were added to the culture at the same time and survival assays were carried out after 96 h treatment. Protein samples for signaling ELISA were extracted 3 h after exposure to the relevant reagents and for biomarker expression after 72 hours.
Protein from cultures was extracted into 500 μl Tris-buffered saline containing protease inhibitor cocktail, and a Bradford assay used to determine protein concentration. Samples were diluted to give equal loading onto ELISA plates. Commercially available ELISA kits were used in accordance with the manufacturer's instructions to determine the ratio of pan-STAT3 to phospho-STAT3 (Sigma, UK) and pan-Akt to phospho-Akt (Sigma, UK) and the levels of alpha-tubulin and phosphorylated tau (Sigma, UK). Each protein sample was run in duplicate using samples derived from at least 5 biological repeats.
Hyper-phosphorylation of tau is the underpinning mechanism of the development of neurofibrillary tangles—one of the key pathological feature of AD. Human SH-SY5Y neuronal cells were exposed to Aβ1-42 alone or in combination with 10 nM leptin, leptin (116-130), leptin (116-121), leptin (117-122), leptin (124-129) or leptin (125-130). Protein was extracted for ELISA assay and the ratio of p-tau to the house-keeping protein α-tubulin determined (FIG. 11C). […] Thus for Aβ1-42-treated cells, 10 nM leptin and 10 nM leptin (116-130) reduced p-tau expression by 56.2±8.0% and 58.9+4.6% respectively compared with Aβ1-42 alone (n=5; P<0.001; FIG. 11C); an effect that was mirrored by 10 nM leptin (116-121) and leptin (117-122); 58.1±4.0% and 45.48±6.1% (n=5; P<0.001 and P<0.01 respectively; FIG. 11C), but not by 10 nM leptin (124-129) or leptin (125-130)(n=5; P>0.5; FIG. 11C).

[2] = system: tau in hippocampal neurons; assay: Immunocytochemistry of endogenous tau and tau/PSD-95 co-localization; assay type: cell-based, Sprague-Dawley rats; settings: for % co-localization of tau and PSD-95 in Aβ1-42-treated neurons / relative tau intensity in Aβ1-42-treated neurons: Aβ1-42 1 μM plus leptin/fragment 10 nM or SB216763 100 nM
Procedure: Hippocampal cultures were prepared as previously (Moult et al, 2010). Neonatal Sprague-Dawley rats (1-3 d old) were […] killed by cervical dislocation in accordance with the UK Animals (Scientific Procedures Act) 1986 legislation. Hippocampi were removed, and after washing in HEPES-buffered saline comprising (mM) 135 NaCl; 5 KCl; 1 CaCl2; 1 MgCl2; 10 HEPES; and 25 D-glucose at […], were treated with papain (1.5 mg ml21; Sigma-Aldrich) for 20 min at 37° C. Dissociated cells were plated onto sterile dishes (35 mm diameter; Greiner Bio-One, Kremsmun-ster, Austria) treated with poly-D-lysine (20 μg ml^−1; 1-2 h). Cultures were maintained in serum replacement medium (SR2; Sigma-Aldrich) in a humidified atmosphere of 5% CO2 and […] at 37° C. for up to 2 wk.
Immunocytochemistry was conducted on primary hippocampal cultures (7-14 DIV). Prior to labelling with antibodies, neurons were washed with HBS containing glycine (0.01 mM) and incubated with agents for 1 h at room temperature. Cultures were fixed with 4% paraformaldehyde for 5 min, then permeabilized with 0.1% Triton X-100 for 5 min. To label endogenous tau, neurons were incubated with a rabbit anti-tau (Ab-217; Genscript) primary antibody (1:200 dilution) at room temperature for 30 min, followed by incubation with an Alexa Fluor555 donkey anti-rabbit (1:250, Invitrogen) secondary antibody for an additional 30 min duration. To assess the % co-localisation of tau at synapses, neurons were dual labelled with an antibody against the synaptic marker, PSD-95 (mouse anti-PSD-95; 1:500, Thermo Fisher) followed by application of an Alexa Fluor488 goat anti-mouse secondary antibody (1:500, Invitrogen).
A Zeiss LSM510 confocal microscope was used for image acquisition and analysis. Images were obtained using a 10-s scan speed in single tracking mode or multi-tracking mode for dual labelling experiments. The intensity of immunostaining was measured off-line using Lasersharp software (Zeiss Lasersharp), whereby analysis lines of 50 μm length were drawn along randomly selected dendritic regions. All data were obtained from at least three different cultures from different animals. Imaging conditions including illumination intensity and photomultiplier gains were kept constant between treatments for each experiment. In addition, data were normalised relative to the mean fluorescence intensity obtained from control neurons. For synaptic co-localisation experiments, tau and PSD-95 positive immunostaining were compared. The number of tau-positive sites that co-localized with PSD-95 positive sites were counted and expressed as a percentage of total positive sites (peaks of intensity).

Substance | reduction of p-tau expression compared with Aβ1-42 alone [1] [%] | % co-localization of tau and PSD-95 in Aβ1-42-treated neurons [2] | relative tau intensity in Aβ1-42-treated neurons [2] | % co-localization of tau and PSD-95, Aβ peptide alone ([2]; 1 μM) | relative tau intensity at dendrites, Aβ peptide alone ([2]; 1 μM)
SCSLPQ (listed as Mus musculus) [leptin (116-121)] | 58.1±4.0 |  |  |  | 
leptin: the metabolic hormone leptin, whole (full length) leptin molecule; human leptin from Sigma in SH-SY5Y work | 56.2±8.0 | prevented the Aβ1.42-driven movement of tau to synapses | reducing the dendritic levels of tau to near control levels |  | 
Aβ1-42: amyloid beta 1-42, toxin used in the AD models [reference compound] |  |  |  | increases % co-localization between endogenous tau and PSD-95 | increased endogenous tau expression compared to control
SCSLPQTSGLQKPES (listed as Mus musculus) [leptin (116-130)] | 58.9 ± 4.6 | prevented Aβ1-42-driven movement of tau to synapses | reducing dendritic tau levels |  | 
CSLPQT (listed as Mus musculus) [leptin (117-122)] | 45.48±6.1 |  |  |  | 
